Reference: patent US8323624B2, “S-triazine sunscreens bearing hindered para-aminobenzalmalonate/para-aminobenzalmalonamide and aminobenzoate/aminobenzamide substituents” (L'Oreal, priority 2004, dated 2012)

Assay: Photostability of oily-solution films under solar simulator irradiation, quantified by HPLC
Type: physicochemical
Settings: 2% by weight in the oil Miglyol 812, film on ground glass; irradiated one hour with Oriel solar simulator (UV-A=14.2 mW/cm^2; UV-B=0.41 mW/cm^2); HPLC vs non-irradiated controls; means over 3 samples
Method: The two products were dissolved at 2% by weight in the oil Miglyol 812. Approximately 10 mg of oily solution are spread over 10 cm^2 at the surface of a hollow disc made of ground glass; the amount is determined by weighing.
The films of the oily solutions are irradiated for one hour using an Oriel solar simulator (UV-A=14.2 mW/cm^2; UV-B=0.41 mW/cm^2) and then extracted with 10 ml of ethanol comprising 10% of isopropanol subjected to ultrasound for 5 min. The products are quantified by analyzing the extracts by HPLC.
HPLC conditions: column: UP5WOD-25QS, 250×4.6 mm, 5 μm, Interchrom; eluent: methanol (Comparative Example 1) and 98% methanol+2% water (Example 1); flow rate: 1 ml/min; volume injected: 10 μl; detection: diode array detector; rt (min): 5.2 (compound of the prior art) and 7.4 (compound of Example 1).
The levels of loss are determined by comparison of the amounts of product present in the irradiated samples and in the non-irradiated controls prepared simultaneously and treated in the same way (means over 3 samples; A=area/mg of solution): % loss=100×(A0−Airr)/A0

% of disappearance (mean loss) [%]	Compound
10.0	CC(C)COC(=O)C(=Cc1ccc(Nc2nc(Nc3ccc(C=C(C(=O)OCC(C)C)C(=O)OCC(C)C)cc3)nc(Nc3ccc(C=C(C(=O)OCC(C)C)C(=O)OCC(C)C)cc3)n2)cc1)C(=O)OCC(C)C [Compound (prior art), 2,4,6-Tris(diisobutyl 4′-aminobenzalmalonate)-s-triazine]
4.6	CCCCOC(=O)c1ccc(Nc2nc(Nc3ccc(C=C(C(=O)OCC(C)(C)C)C(=O)OCC(C)(C)C)cc3)nc(Nc3ccc(C=C(C(=O)OCC(C)(C)C)C(=O)OCC(C)(C)C)cc3)n2)cc1 [Compound of formula (1), 2,4-bis(dineopentyl 4′-aminobenzalmalonate)-6-(butyl 4″-aminobenzoate)-s-triazine]
